We go through nine molecules from PubChem BioAssay (NCI).

Some test systems named below: COLO 205 colon; HCT-116 colon; HL-60(TB) leukemia; HOP-62 NSCLC; HS 578T breast; M14 melanoma; MDA-MB-435; MDA-N; NCI-H23 lung; NCI-H522 lung; OVCAR-5 ovarian; PC-3 prostate; SF-295 CNS; SF-539 CNS; SK-MEL-28 melanoma; SK-OV-3 ovarian; SR leukemia; UACC-257 melanoma; UACC-62 melanoma.
Test in all cases: DTP human tumour cell line panel, 48 h

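In this assay, cells in 96-well plates receive the compound at five concentrations for 48 hours. Endpoints are linearly interpolated between the surrounding concentrations. Definition used: TGI = concentration required for complete inhibition of growth.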 Where only a bound is given, the exact number is not on record here.

As to `CCC(C)C(C(=O)N/N=C1/SCC(=O)N1c1ccccc1)C(=O)N/N=C1/SCC(=O)N1c1ccccc1` (stereo unspecified), the TGI in the assay with COLO 205 colon was above 100 µM; in the assay on HCT-116 colon it was 58.9 µM; in the assay with HL-60(TB) leukemia, above 100 µM; in the assay on HOP-62 NSCLC it was above 100 µM; in the assay on HS 578T breast, above 100 µM; in the assay on M14 melanoma, above 100 µM. Moreover, the TGI with MDA-MB-435 was 35.9 µM; in the assay with MDA-N, 94.6 µM; with NCI-H23 lung, above 100 µM; in the assay on NCI-H522 lung, above 100 µM; with OVCAR-5 ovarian it was above 100 µM; with PC-3 prostate it was above 100 µM. The TGI with SF-295 CNS is above 100 µM; in the assay with SF-539 CNS it was above 100 µM; with SK-MEL-28 melanoma, 33.9 µM; in the assay with SK-OV-3 ovarian, 74.6 µM; with SR leukemia, above 100 µM; in the assay on UACC-257 melanoma it was above 100 µM. For the same molecule, the TGI in the assay with UACC-62 melanoma was 36.9 µM.

On to `Cc1ccc2nc(CN3CCCC(O)C3)cc(=O)n2c1` (stereo unspecified), for which the TGI in the assay with COLO 205 colon, in the assay with HCT-116 colon, in the assay with HL-60(TB) leukemia, with HOP-62 NSCLC, with HS 578T breast and with M14 melanoma was above 100 µM throughout. Besides, the TGI in the assay with MDA-MB-435, in the assay on MDA-N, with NCI-H23 lung, in the assay with NCI-H522 lung, with OVCAR-5 ovarian and with PC-3 prostate was above 100 µM each time. Moreover, the concentration for total growth inhibition (TGI) with SF-295 CNS, in the assay on SF-539 CNS, in the assay on SK-MEL-28 melanoma, in the assay on SK-OV-3 ovarian, in the assay with SR leukemia and with UACC-257 melanoma was above 100 µM in each case. This molecule also registered a concentration for total growth inhibition (TGI) with UACC-62 melanoma above 100 µM.

As for `COc1cc(S(=O)(=O)Nc2nc(-c3ccc(N4C(=O)CSC4c4cccs4)cc3)cs2)ccc1Cl` (stereo unspecified), the TGI in the assay with COLO 205 colon, in the assay with HCT-116 colon, in the assay with HL-60(TB) leukemia, with HOP-62 NSCLC, in the assay with HS 578T breast and in the assay with M14 melanoma was above 100 µM in each case. Moreover, the TGI in the assay with MDA-MB-435 is above 100 µM; in the assay with MDA-N, above 100 µM; in the assay on NCI-H23 lung, 89 µM; with NCI-H522 lung it was 83.2 µM; in the assay with OVCAR-5 ovarian, above 100 µM; in the assay with PC-3 prostate it was above 100 µM. Also, the TGI in the assay with SF-295 CNS was above 100 µM; with SF-539 CNS it was above 100 µM; in the assay on SK-MEL-28 melanoma it was above 100 µM; with SK-OV-3 ovarian, above 100 µM; in the assay with SR leukemia, 96.8 µM; with UACC-257 melanoma, above 100 µM. For the same molecule, the TGI in the assay on UACC-62 melanoma was above 100 µM.

On to `COc1cc(/C=C(\C#N)c2nc3ccccc3o2)ccc1O`, for which the TGI came out at 33 µM in the assay on COLO 205 colon; 34.3 µM with HCT-116 colon; 55.3 µM in the assay with HL-60(TB) leukemia; 52.8 µM with HOP-62 NSCLC; 75.2 µM with HS 578T breast; 54.6 µM with M14 melanoma. For the same molecule, the total growth inhibition concentration (TGI) in the assay with MDA-MB-435 was 41.6 µM; with MDA-N, above 100 µM; with NCI-H23 lung it was 70 µM; with NCI-H522 lung it was 27.8 µM; with OVCAR-5 ovarian it was 61.2 µM; in the assay with PC-3 prostate, 66.4 µM. The TGI in the assay on SF-295 CNS was 36.8 µM; in the assay on SF-539 CNS, 28.5 µM; with SK-MEL-28 melanoma, 58.1 µM; in the assay on SK-OV-3 ovarian, 36.7 µM; with SR leukemia, above 100 µM; in the assay on UACC-257 melanoma it was above 100 µM. Besides, in the assay with UACC-62 melanoma, the total growth inhibition concentration (TGI) is 40.5 µM.

`O=C(c1ccccc1)c1ccc2nc3n(c2c1)C(c1c(F)cccc1F)SC3` (stereo unspecified): the TGI is 21.7 µM with COLO 205 colon; 13.5 µM with HCT-116 colon; above 100 µM in the assay on HL-60(TB) leukemia; 52.2 µM in the assay on HOP-62 NSCLC; above 81 µM in the assay with HS 578T breast; 15.4 µM in the assay with M14 melanoma. Also, the TGI is 3.96 µM in the assay on MDA-MB-435; 3.43 µM in the assay with MDA-N; above 61.7 µM with NCI-H23 lung; 6.14 µM in the assay with NCI-H522 lung; above 91.1 µM in the assay with OVCAR-5 ovarian; above 80.7 µM with PC-3 prostate. Moreover, the total growth inhibition concentration (TGI) was 13.8 µM with SF-295 CNS; above 47.8 µM in the assay on SF-539 CNS; above 70.5 µM with SK-MEL-28 melanoma; 26.7 µM with SK-OV-3 ovarian; 9.4 µM in the assay with SR leukemia; 91.1 µM in the assay on UACC-257 melanoma. Moreover, the TGI in the assay on UACC-62 melanoma is 21.3 µM.

Consider `COc1ccc2nc3c([N+](=O)[O-])ccc4c3c(c2c1)N=CN4CCCN(C)C`, for which the TGI in the assay with COLO 205 colon stood at 5.77 µM; in the assay with HCT-116 colon, 14.1 µM; in the assay on HL-60(TB) leukemia, 6.27 µM; with HOP-62 NSCLC, 15.1 µM; in the assay with HS 578T breast it was 27.5 µM; with M14 melanoma, 23.6 µM. Besides, the TGI with MDA-MB-435 came to 20.1 µM; in the assay on MDA-N, 21.8 µM; in the assay with NCI-H23 lung it was 18.7 µM; in the assay with NCI-H522 lung it was 9.61 µM; in the assay with OVCAR-5 ovarian, 25.5 µM; in the assay on PC-3 prostate, 13 µM. Also, the TGI in the assay on SF-295 CNS came to 18.2 µM; in the assay with SF-539 CNS, 13 µM; in the assay on SK-MEL-28 melanoma, 31.5 µM; in the assay with SK-OV-3 ovarian it was 25.3 µM; with SR leukemia it was 1.03 µM; with UACC-257 melanoma, 17.2 µM. This molecule also came in with a TGI in the assay with UACC-62 melanoma of 28.1 µM.

On to `CN1CCC2(CC1)SC[C@H]1C(=O)N(c3ccc(Cl)cc3)C(=O)N12`, for which the TGI in the assay on COLO 205 colon, in the assay with HCT-116 colon, with HL-60(TB) leukemia, in the assay on HOP-62 NSCLC, with HS 578T breast and in the assay with M14 melanoma was above 100 µM in each case. The concentration for total growth inhibition (TGI) in the assay with MDA-MB-435, in the assay with MDA-N, with NCI-H23 lung, in the assay with NCI-H522 lung, in the assay with OVCAR-5 ovarian and in the assay on PC-3 prostate was above 100 µM in each case. In addition, the TGI in the assay on SF-295 CNS, in the assay on SF-539 CNS, in the assay with SK-MEL-28 melanoma, with SK-OV-3 ovarian, in the assay on SR leukemia and with UACC-257 melanoma was above 100 µM in each case. This molecule displayed a TGI with UACC-62 melanoma above 100 µM.

Take `O=c1[nH]c(C23CC4CC(CC(C4)C2)C3)cc2c1c(=O)oc1ccccc12`: the TGI in the assay on COLO 205 colon was 46.9 µM; in the assay with HCT-116 colon, 12.4 µM; in the assay with HL-60(TB) leukemia it was above 100 µM; in the assay with HOP-62 NSCLC, 9.56 µM; in the assay on HS 578T breast, above 20.3 µM; with M14 melanoma it was 39.6 µM. Moreover, the TGI was above 60.5 µM in the assay on MDA-MB-435; above 59.3 µM in the assay with MDA-N; 23 µM in the assay on NCI-H23 lung; 11.1 µM with NCI-H522 lung; 22.8 µM in the assay on OVCAR-5 ovarian; 10.5 µM in the assay on PC-3 prostate. The TGI in the assay with SF-295 CNS is 12.9 µM; in the assay with SF-539 CNS it was 17.4 µM; with SK-MEL-28 melanoma, 20.6 µM; in the assay on SK-OV-3 ovarian, 11 µM; in the assay with SR leukemia, 9.31 µM; with UACC-257 melanoma it was above 76.2 µM. Besides, the TGI in the assay with UACC-62 melanoma is above 49.8 µM.

Regarding `COC(=O)c1cc2c(o1)Sc1ccccc1NC2=O`, the concentration for total growth inhibition (TGI) with COLO 205 colon was above 100 µM; with HCT-116 colon it was above 100 µM; with HL-60(TB) leukemia it was above 100 µM; with HOP-62 NSCLC, above 100 µM; in the assay on HS 578T breast it was 63.8 µM; in the assay on M14 melanoma, above 100 µM. The TGI with MDA-MB-435, in the assay with MDA-N, in the assay on NCI-H23 lung, in the assay with NCI-H522 lung, in the assay on OVCAR-5 ovarian and with PC-3 prostate was above 100 µM throughout. The TGI in the assay with SF-295 CNS, in the assay on SF-539 CNS, in the assay on SK-MEL-28 melanoma, in the assay on SK-OV-3 ovarian, in the assay on SR leukemia and in the assay with UACC-257 melanoma was above 100 µM in each case. The molecule further yielded a concentration for total growth inhibition (TGI) in the assay on UACC-62 melanoma above 100 µM.

The TGI is the concentration at which net growth stops. A low value points to more potent growth arrest.
